Experimental data taken from patent US20240010653A1, “Crystalline Forms of 4-amino-N-[4-(methoxymethyl)phenyl]-7-(1-methylcyclopropyl)-6-(3-morpholinoprop-1-yn-1-yl)-7H-pyrrolo[2,3-d]pyrimidine-5-carboxamide” (Helsinn Healthcare SA, priority 2020, published 2024).
Where a name gives a salt, the structure may show the parent alone.

How the values were obtained:
Assay type in all cases: physicochemical
[1] = Storage stability, accelerated conditions 40° C./75% relative humidity; conditions: for HPLC assay (anhydrous) / HPLC purity: 12-HM06 / HPLC purity: impurity 12-HM06.il (RRT 0.92-.94) / HPLC purity: impurity RRT 0.56 / HPLC purity: impurity RRT 1.11 / HPLC purity: impurity RRT 1.20-1.24 / HPLC purity: impurity RRT 1.41-1.42 / Water content (KF) / XRPD: 40° C./75% relative humidity
Description: (§1) Samples of HM06 1:2 HCl Form 1 were subjected to accelerated storage conditions and long-term storage.
Samples of HM06 1:2 HCl Form 1 from the same lot were stored at 40° C. and 75% relative humidity for 24 months with testing at regular intervals.

[2] = Saturated solution in methanol; conditions: room temperature
Description: A saturated solution of HM06 1:2 HCl Form 1 in methanol approx. 50 mg/mL was prepared and allowed to stir at room temperature overnight (18 hours). After this time, it was filtered and left to evaporate at 25° C./700 mbar. The preparation of the sample plate sealed with Kapton film was performed under 40-45% RH. Some very minor signals of Form 1 were present.

[3] = Storage stability, long term conditions 25° C. and 60% relative humidity
From the text: as §1
Table 25 sets forth the sample analysis at times 0, 3 months, 6 months, 9 months, 12 months, 18 months, and 24 months.

[4] = Uptake of water from air by dehydrated form, followed by VP-XRPD; conditions: after vacuum 0.07 mbar; ambient condition, RH about 80%
Description: VP-XRPD measurements were performed on the Panalytical X'pert equipped with the Anton Paar TTK450 chamber which allowed for measurement of the powder in-situ at controlled temperature and/or under vacuum.
The first measurement was collected at RT and atmospheric pressure. The sample was then left for 15 minutes under vacuum (0.07 mbar).
The uptake of water by Form 1-bis was observed via XRPD by following the difference in the pattern in the range 2θ=25.5°-27-5° (see FIG. 5C). Under vacuum the highest peak is the peak at 2θ=26.7° while after exposure of the sample in air 2 minutes the highest is at 2θ=26.4°. The peak at 2θ=26.4° moves to 2θ=26.2° in 20 minutes. HM06 1:2 HCl crystalline Form 1-bis uptakes the water from the atmosphere as soon as the powder is exposed to the air, and it reaches the diffraction pattern of the starting material in 20 minutes (see […] 5D). This experiment was done in ambient condition with RH % of the room about at 80%.

[5] = Solid form (polymorph) stability on storage, followed by XRPD; conditions: for Form stability (XRPD) after storage in a sealed vial: seven days in a sealed vial
Description: The stability of Form 4-bis was assessed after seven days of storage in a sealed vial.
HM06 1:2 HCl Form 4 exposed powder was stored overnight at room temperature under 43% RH.
The stability of the HM06 1:2 HCl Form 5-bis sample was assessed after 18 hours exposed to air and after one week in a sealed vial, both at room temperature.
Form 5-bis was measured after 18 hours exposed powder at room temperature. The % RH was approx. of 45%.
These changes could not be associated with conversion into one of the other isolated polymorphs observed during this study: thus, the sample was considered not stable.
HM06 1:2 HCl Form 5-bis was measured after seven days at room temperature in a sealed vial.
Form 6 was collected after evaporation of HM06 1:2 HCl Form 1 in a 1:1 acetonitrile/water solution at room temperature under low pressure.

With `COCc1ccc(NC(=O)c2c(C#CCN3CCOCC3)n(C3(C)CC3)c3ncnc(N)c23)cc1` [HM06 1:2 HCl Form 1, 4-amino-N-[4-(methoxymethyl)phenyl]-7-(1-methylcyclopropyl)-6-(3-morpholinoprop-1-yn-1-yl)-7H-pyrrolo[2,3-d]pyrimidine-5-carboxamide] the “HPLC assay (anhydrous)” value ([1]; 0 months) was 99%, the “HPLC purity: 12-HM06” value ([1]; 0 months) was 99% and the “HPLC purity: impurity 12-HM06.il (RRT 0.92-.94)” value (from here on “HPLC purity … (RRT 0.92-.94)”) ([1]; 0 months) was 0.51%. For the same compound, the “HPLC purity: impurity RRT 0.56” value ([1]; 0 months) was “not detected”, the “HPLC purity: impurity RRT 1.11” value ([1]; 0 months) was “not detected” and the “HPLC purity: impurity RRT 1.20-1.24” value ([1]; 0 months) was 0.20%. The “HPLC purity: impurity RRT 1.41-1.42” value ([1]; 0 months) was 0.06%, the “Water content (KF)” value ([1]; 0 months) was 6% and the XRPD ([1]; 0 months) was “Crystalline”. The “HPLC assay (anhydrous)” value ([1]; 1 month) was 100%, the “HPLC purity: 12-HM06” value ([1]; 1 month) was 99% and the “HPLC purity … (RRT 0.92-.94)” value ([1]; 1 month) was 0.51%. For the same compound, the “HPLC purity: impurity RRT 0.56” value ([1]; 1 month) was “not detected”, the “HPLC purity: impurity RRT 1.11” value ([1]; 1 month) was “not detected” and the “HPLC purity: impurity RRT 1.20-1.24” value ([1]; 1 month) was 0.20%. The “HPLC purity: impurity RRT 1.41-1.42” value ([1]; 1 month) was 0.06%, the “Water content (KF)” value ([1]; 1 month) was 6% and the XRPD ([1]; 1 month) was “Crystalline”. For the same compound, the “HPLC assay (anhydrous)” value ([1]; 3 months) was 102%, the “HPLC purity: 12-HM06” value ([1]; 3 months) was 99% and the “HPLC purity … (RRT 0.92-.94)” value ([1]; 3 months) was 0.51%. The “HPLC purity: impurity RRT 0.56” value ([1]; 3 months) was “not detected”, the “HPLC purity: impurity RRT 1.11” value ([1]; 3 months) was “not detected” and the “HPLC purity: impurity RRT 1.20-1.24” value ([1]; 3 months) was 0.20%. The “HPLC purity: impurity RRT 1.41-1.42” value ([1]; 3 months) was 0.06%, the “Water content (KF)” value ([1]; 3 months) was 5% and the XRPD ([1]; 3 months) was “Crystalline”. The “HPLC assay (anhydrous)” value ([1]; 6 months) was 98%, the “HPLC purity: 12-HM06” value ([1]; 6 months) was 99% and the “HPLC purity … (RRT 0.92-.94)” value ([1]; 6 months) was 0.51%. The “HPLC purity: impurity RRT 0.56” value ([1]; 6 months) was 0.05%, the “HPLC purity: impurity RRT 1.11” value ([1]; 6 months) was 0.05% and the “HPLC purity: impurity RRT 1.20-1.24” value ([1]; 6 months) was 0.19%. For the same compound, the “HPLC purity: impurity RRT 1.41-1.42” value ([1]; 6 months) was 0.06%, the “Water content (KF)” value ([1]; 6 months) was 5% and the XRPD ([1]; 6 months) was “Crystalline”. The “Storage stability, overall result” value ([1]; accelerated storage conditions and long-term storage) was “remained stable and crystalline”, the “Concentration of saturated solution in methanol” value [2] was “approx. 50 mg/mL” and the “HPLC assay (anhydrous)” value ([3]; 0 months) was 99%. The “HPLC purity: 12-HM06” value ([3]; 0 months) was 99%, the “HPLC purity: impurity 12-HM06.il (RRT 0.92-0.94)” value (shortened to “HPLC purity … (RRT 0.92-0.94)”) ([3]; 0 months) was 0.51% and the “HPLC purity: impurity RRT 1.20-1.24” value ([3]; 0 months) was 0.20%. For the same compound, the “HPLC purity: impurity RRT 1.41-1.42” value ([3]; 0 months) was 0.06%, the “Water content (KF)” value ([3]; 0 months) was 6% and the XRPD ([3]; 0 months) was “Crystalline”. For the same compound, the “HPLC assay (anhydrous)” value ([3]; 3 months) was 102%, the “HPLC purity: 12-HM06” value ([3]; 3 months) was 99% and the “HPLC purity … (RRT 0.92-0.94)” value ([3]; 3 months) was 0.51%. The “HPLC purity: impurity RRT 1.20-1.24” value ([3]; 3 months) was 0.20%, the “HPLC purity: impurity RRT 1.41-1.42” value ([3]; 3 months) was 0.06% and the “Water content (KF)” value ([3]; 3 months) was 5%. For the same compound, the XRPD ([3]; 3 months) was “Crystalline”, the “HPLC assay (anhydrous)” value ([3]; 6 months) was 99% and the “HPLC purity: 12-HM06” value ([3]; 6 months) was 99%. For the same compound, the “HPLC purity … (RRT 0.92-0.94)” value ([3]; 6 months) was 0.51%, the “HPLC purity: impurity RRT 1.20-1.24” value ([3]; 6 months) was 0.20% and the “HPLC purity: impurity RRT 1.41-1.42” value ([3]; 6 months) was 0.06%. For the same compound, the “Water content (KF)” value ([3]; 6 months) was 5%, the XRPD ([3]; 6 months) was “Crystalline” and the “HPLC assay (anhydrous)” value ([3]; 9 months) was 99%. The “HPLC purity: 12-HM06” value ([3]; 9 months) was 99%, the “HPLC purity … (RRT 0.92-0.94)” value ([3]; 9 months) was 0.51% and the “HPLC purity: impurity RRT 1.20-1.24” value ([3]; 9 months) was 0.20%. The “HPLC purity: impurity RRT 1.41-1.42” value ([3]; 9 months) was 0.06%, the “Water content (KF)” value ([3]; 9 months) was 5% and the XRPD ([3]; 9 months) was “Crystalline”. For the same compound, the “HPLC assay (anhydrous)” value ([3]; 12 months) was 99%, the “HPLC purity: 12-HM06” value ([3]; 12 months) was 99% and the “HPLC purity … (RRT 0.92-0.94)” value ([3]; 12 months) was 0.51%. The “HPLC purity: impurity RRT 1.20-1.24” value ([3]; 12 months) was 0.20%, the “HPLC purity: impurity RRT 1.41-1.42” value ([3]; 12 months) was 0.06% and the “Water content (KF)” value ([3]; 12 months) was 6%. For the same compound, the XRPD ([3]; 12 months) was “Crystalline”, the “HPLC assay (anhydrous)” value ([3]; 18 months) was 97% and the “HPLC purity: 12-HM06” value ([3]; 18 months) was 99%. The “HPLC purity … (RRT 0.92-0.94)” value ([3]; 18 months) was 0.51%, the “HPLC purity: impurity RRT 0.85” value ([3]; 18 months) was 0.05% and the “HPLC purity: impurity RRT 1.11” value ([3]; 18 months) was 0.05%. The “HPLC purity: impurity RRT 1.20-1.24” value ([3]; 18 months) was 0.19%, the “HPLC purity: impurity RRT 1.41-1.42” value ([3]; 18 months) was 0.06% and the “Water content (KF)” value ([3]; 18 months) was 5%. For the same compound, the XRPD ([3]; 18 months) was “Crystalline”, the “HPLC assay (anhydrous)” value ([3]; 24 months) was 100% and the “HPLC purity: 12-HM06” value ([3]; 24 months) was 99%. The “HPLC purity … (RRT 0.92-0.94)” value ([3]; 24 months) was 0.51%, the “HPLC purity: impurity RRT 0.85” value ([3]; 24 months) was 0.06% and the “HPLC purity: impurity RRT 1.20-1.24” value ([3]; 24 months) was 0.19%. For the same compound, the “HPLC purity: impurity RRT 1.41-1.42” value ([3]; 24 months) was 0.06%, the “Water content (KF)” value ([3]; 24 months) was 6% and the XRPD ([3]; 24 months) was “Crystalline”.
With `COCc1ccc(NC(=O)c2c(C#CCN3CCOCC3)n(C3(C)CC3)c3ncnc(N)c23)cc1` [HM06 1:2 HCl Form 1-bis, 4-amino-N-[4-(methoxymethyl)phenyl]-7-(1-methylcyclopropyl)-6-(3-morpholinoprop-1-yn-1-yl)-7H-pyrrolo[2,3-d]pyrimidine-5-carboxamide] the “Time in air to reach the diffraction pattern of the starting material (Form 1) by uptake of water” value [4] was 20 min.
For `COCc1ccc(NC(=O)c2c(C#CCN3CCOCC3)n(C3(C)CC3)c3ncnc(N)c23)cc1` [HM06 1:2 HCl Form 4, 4-amino-N-[4-(methoxymethyl)phenyl]-7-(1-methylcyclopropyl)-6-(3-morpholinoprop-1-yn-1-yl)-7H-pyrrolo[2,3-d]pyrimidine-5-carboxamide], the “Form stability (XRPD) of exposed powder” value ([5]; stored overnight at room temperature under 43% RH) was “No significant modifications”.
In the case of `COCc1ccc(NC(=O)c2c(C#CCN3CCOCC3)n(C3(C)CC3)c3ncnc(N)c23)cc1` [HM06 1:2 HCl Form 4-bis, 4-amino-N-[4-(methoxymethyl)phenyl]-7-(1-methylcyclopropyl)-6-(3-morpholinoprop-1-yn-1-yl)-7H-pyrrolo[2,3-d]pyrimidine-5-carboxamide], the “Form stability (XRPD) after storage in a sealed vial” value ([5]; listed as Form 4-bis) is reported as “complete conversion into Form 1”.
For `COCc1ccc(NC(=O)c2c(C#CCN3CCOCC3)n(C3(C)CC3)c3ncnc(N)c23)cc1` [HM06 1:2 HCl Form 5-bis, 4-amino-N-[4-(methoxymethyl)phenyl]-7-(1-methylcyclopropyl)-6-(3-morpholinoprop-1-yn-1-yl)-7H-pyrrolo[2,3-d]pyrimidine-5-carboxamide], the “Form stability (XRPD) of exposed powder” value ([5]; 18 hours exposed to air at room temperature, approx. 45% RH) was “not stable” and the “Form stability (XRPD) after storage in a sealed vial” value [5] was “started to convert into Form 1”.
With `COCc1ccc(NC(=O)c2c(C#CCN3CCOCC3)n(C3(C)CC3)c3ncnc(N)c23)cc1` [HM06 1:2 HCl Form 6, 4-amino-N-[4-(methoxymethyl)phenyl]-7-(1-methylcyclopropyl)-6-(3-morpholinoprop-1-yn-1-yl)-7H-pyrrolo[2,3-d]pyrimidine-5-carboxamide] the “Form stability on storage” value ([5]; 6 days of storage, room temperature under low pressure) was “conversion into Form 1”.
